Results on five molecules are retold here after ChEMBL document CHEMBL1201862, “PubChem BioAssay data set” (2004).

Among the test systems are A549; DMS-114; EKVX; HCC 2998; HCT-116; HCT-15; HL-60; IGROV-1; LOX IMVI; M14; NCI-H460; NCI-H522; OVCAR-3; OVCAR-4; OVCAR-8; RPMI-8226; SF-268; SK-MEL-2; SK-MEL-5; TK-10.
Holding throughout (test): NCI-60 cell line screen, 48 h

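Cells were grown in 96-well plates and exposed to each compound for 48 hours at five concentrations; endpoints were interpolated linearly between bracketing concentrations, or set to the highest concentration if not reached. Here, GI50 denotes the concentration required for 50% inhibition of growth.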 Activity calls are given as the source filed them. Cut-off read from the data, not from the text of the source: active = GI50 up to about 1.1 µM and inactive = higher. Bounds are passed on as bounds.

As for `CC1(C)Cc2c(C#N)c(N)c3c(c2CO1)C(=O)OC3=O`, the GI50 is > 100 µM (inactive) in the assay with A549; > 100 µM (inactive) in the assay on DMS-114; > 100 µM (inactive) in the assay with EKVX; > 100 µM (inactive) with HCC 2998; > 100 µM (inactive) with HCT-116; > 100 µM in the assay on HCT-15. The GI50 in the assay on HL-60, in the assay on IGROV-1, in the assay on LOX IMVI, in the assay on M14, in the assay on NCI-H460 and in the assay on NCI-H522 was > 100 µM (inactive) each time. Besides, the GI50 with OVCAR-3, with OVCAR-4, in the assay with OVCAR-8, with RPMI-8226, in the assay on SF-268 and in the assay on SK-MEL-2 was > 100 µM (inactive) in each case. Further, the GI50 with SK-MEL-5 and in the assay on TK-10 was > 100 µM (inactive) in each case.
With `CCC(=C(C#N)C#N)c1cc(OC)c(OC)c(OC)c1`, the GI50 in the assay with A549 is > 100 µM (inactive); with DMS-114, > 100 µM (inactive); with EKVX it was > 100 µM (inactive); with HCC 2998, > 100 µM (inactive); in the assay on HCT-116, > 100 µM (inactive); in the assay with HCT-15 it was > 100 µM. In addition, the GI50 in the assay with HL-60 was 22.1 µM (inactive); with IGROV-1 it was > 100 µM (inactive); in the assay with LOX IMVI it was > 100 µM (inactive); in the assay on M14, > 100 µM (inactive); with NCI-H460, > 100 µM (inactive); in the assay with NCI-H522 it was > 100 µM (inactive). For the same molecule, the GI50 in the assay with OVCAR-3 is > 100 µM (inactive); in the assay with OVCAR-4 it was > 100 µM (inactive); with OVCAR-8 it was > 100 µM (inactive); in the assay on RPMI-8226 it was 15.6 µM (inactive); with SF-268 it was > 100 µM (inactive); in the assay with SK-MEL-2 it was > 100 µM (inactive). Further, the GI50 in the assay with SK-MEL-5 and in the assay with TK-10 was > 100 µM (inactive) in each case.
Consider `O=C1C=C2SC3C[C@@]24CC1[N+]1=c2c4c(c(O)c4c2=C(C=N4)CC1)N3`, for which the GI50 with A549 was 6.17 µM (inactive); in the assay on DMS-114, 1.39 µM (inactive); in the assay on EKVX, 2.27 µM (inactive); with HCC 2998, 2.74 µM (inactive); in the assay on HCT-116, 1.81 µM (inactive); in the assay with HCT-15, 3.4 µM. Further, the GI50 with HL-60 was 1.46 µM (inactive); with IGROV-1, 2.44 µM (inactive); with LOX IMVI, 2.51 µM (inactive); with NCI-H460, 3.2 µM (inactive); with NCI-H522, 1.58 µM (inactive); in the assay with OVCAR-3 it was 0.938 µM (active). In addition, the GI50 with OVCAR-4 was 1.66 µM (inactive); in the assay on OVCAR-8 it was 2.03 µM (inactive); in the assay with RPMI-8226 it was 2.08 µM (inactive); in the assay on SF-268, 1.45 µM (inactive); in the assay on SK-MEL-2, 1.82 µM (inactive); in the assay on SK-MEL-5, 1.88 µM (inactive).
For `COc1cc2c(cc1OC)C(C(c1ccccc1)c1ccccc1)N(C)CC2` (centres undefined), the GI50 was > 100 µM (inactive) in the assay on A549; 41.8 µM (inactive) with DMS-114; > 100 µM (inactive) in the assay on EKVX; 26.3 µM (inactive) in the assay with HCC 2998; > 58.6 µM (inactive) in the assay with HCT-116; > 100 µM with HCT-15. The GI50 was 40.6 µM (inactive) in the assay with HL-60; 70.6 µM (inactive) with IGROV-1; > 81.1 µM (inactive) in the assay on LOX IMVI; > 89.1 µM (inactive) in the assay on NCI-H460; 74.1 µM (inactive) in the assay on NCI-H522; > 84.7 µM (inactive) with OVCAR-3. Besides, the GI50 in the assay on OVCAR-4 was > 94 µM (inactive); in the assay with OVCAR-8 it was > 100 µM (inactive); in the assay on RPMI-8226 it was 36.6 µM (inactive); in the assay on SF-268, > 100 µM (inactive); in the assay on SK-MEL-2 it was > 85.9 µM (inactive); with SK-MEL-5, 21 µM (inactive).
In the case of `CCOC(=O)c1c(C)c2c(n1C)CCc1c[nH]nc1-2`, the GI50 is > 100 µM (inactive) with A549; > 100 µM (inactive) in the assay with DMS-114; 18 µM (inactive) in the assay on EKVX; > 100 µM (inactive) with HCC 2998; > 100 µM (inactive) in the assay on HCT-116; > 100 µM in the assay on HCT-15. The GI50 in the assay with HL-60, in the assay with IGROV-1, with LOX IMVI, in the assay on NCI-H460, in the assay with NCI-H522 and in the assay on OVCAR-3 was > 100 µM (inactive) each time. The GI50 with OVCAR-4, with OVCAR-8, in the assay on RPMI-8226, with SF-268, in the assay with SK-MEL-2 and in the assay on SK-MEL-5 was > 100 µM (inactive) in each case.
